What was measured:
[1] = target: T1, LuxS (S-ribosylhomocysteinase) (Bacillus subtilis, UniProt O34667); assay: LuxS activity assay with SRH and DTNB at […] nm, […] min preincubation; assay type: biochemical
T1 sequence (O34667 1-157): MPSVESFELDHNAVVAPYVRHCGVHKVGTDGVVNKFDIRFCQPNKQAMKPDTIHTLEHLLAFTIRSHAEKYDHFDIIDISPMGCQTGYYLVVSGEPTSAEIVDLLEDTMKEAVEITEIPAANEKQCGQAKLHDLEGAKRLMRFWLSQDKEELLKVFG

[2] = target: T1, LuxS (S-ribosylhomocysteinase); assay: LuxS activity assay with SRH and DTNB at […] nm; assay type: biochemical

Ki [1] | Ki [2] | Compound
3.5 µM |  | N[C@@H](CCSC[C@H]1NC(O)[C@H](O)[C@@H]1O)C(=O)O (mixture of isomers) [compound 23, S-(4-Amino-4,5-dideoxy-α/β-D-ribofuranos-5-yl)-L-homocysteine]
 | 48 µM | N[C@@H](CCSC[C@H]1NC[C@H](O)[C@@H]1O)C(=O)O [compound 12, S-(1-Amino-1,4-anhydro-1,5-dideoxy-D-ribitol-5-yl)-L-homocysteine]
 | 37 µM | N[C@@H](CCSC[C@H]1NC(=O)[C@H](O)[C@@H]1O)C(=O)O [compound 21, S-(4-Amino-4,5-dideoxy-D-ribono-1,4-lactam-5-yl)-L-homocysteine]

From publication PMC3171632 (2011)
